Data set [1] can be described thus: Stability of conjugates in Simulated Intestinal Fluid (SIF). The data set is classed as in vitro ADME. The conditions noted are these: simulated intestinal fluid pH 6.7 with pancreatin, 1 μM, 37° C. In short, it runs like this:
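Conjugates at 1 μM (from 1 mM DMSO stock) were incubated with agitation at 37° C. in freshly made SIF: FaSSIF powder plus pancreatin in pH 6.7 phosphate buffer. Aliquots taken at T0 and at regular intervals were quenched with 1 volume acetonitrile, and LC/MS gave degradation rates.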

The nature of data set [2]: In vitro Colonic Material Stability Assay. It counts as in vitro ADME. The conditions noted are these: for Assay 3 (% Remaining at 24 h): colonic material slurry, anaerobic, 1 or 10 μM; for Selective delivery to the colon (conclusion from Table 2): from SGF, SIF and colonic material stability. In short, it runs like this: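 Compounds were added at 1 or 10 μM final to colonic material slurry (6.7 μL of 15% w/v slurry per 1 mL YCFAC or similar medium). Samples taken at 0–2880 min were acetonitrile-quenched and the remaining compound quantified by LC/MS.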

In data set [3] the test system is WT ClbP. The data set is described as follows: Assay with purified ClbP protein (LCMS). It counts as biochemical, E. coli. Conditions: 20 μM WT ClbP, room temperature, 24 h. On the procedure: This example is representative of the method described in Example 91 the soluble peptidase domain (amino acids 38 to 375) of ClbP or the catalytically inert mutant S95A was cloned into pET28a using previously defined boundaries as a starting point (Brotherton, J. Am. Chem. Soc., 135:3359-3362, 2013).
WT ClbP or S95A ClbP was isolated as an N-terminally tagged HiS6-SUMO1-fusion protein from […] using E. coli BL21(DE3)RIPL to express the protein. The cells were lysed in 30 mM Tris pH 8.0, 300 mM NaCl, 10% (v/v) glycerol, benzonase (Sigma-Millipore), lysozyme, B-per (ThermoFisher), and Y-per (ThermoFisher). The lysate was clarified via centrifugation (13,000 g, 20 min), and the supernatant was incubated with HiBond Ni-NTA agarose (5 mL). The resin was subsequently washed with wash buffer (30 mM Tris pH 7.5, 250 mM NaCl, 10 mM imidazole, 3% (v/v) glycerol, and 2 mM TCEP). The resin was incubated at 30° C. for 1 h with 1.4 mg ULP1 protease. The resin was then washed with an additional fraction of wash buffer. Centrifuge filtration was used to concentrate the protein, and the concentrated protein was subsequently applied to a 16/600 Superdex 200 size exclusion column with an isocratic elution of 25 mM HEPES, 25 mM Tris pH 7.4, 325 mM NaCl, 10 mM KCl and 3% (v/v) glycerol at a flow rate of […]. The fractions containing the protein were determined by SDS-PAGE, combined, and concentrated by centrifuge filtration. 3 mM TCEP was added to the concentrated protein, which was then aliquoted, flash frozen in liquid N2, and stored at −80° C.
This example is representative of the method described in Example D, ClbP was incubated with test compounds in an in vitro assay. In a typical assay, 0, 1, or 20 μM purified WT or S95A ClbP was incubated with 100 or 500 μM compound in reaction buffer (50 mM Tris-HCl pH 7.5, 37.5 mM NaCl) at room temperature for 24 h. The total volume of this reaction was 150 μL.
After 24 h, 2 volumes of acetonitrile (300 μL) were added to the reaction to quench the solution.
The reaction was centrifuged (4,000 g, 15 min), and then the supernatant was analyzed by LCMS. 5 μL of the supernatant was injected onto an Acquity UPLC BEH C18 1.7 μm 2.1×100 column. Buffer A was 0.1% (v/v) formic acid in water and buffer B was 0.1% (v/v) formic acid in acetonitrile. The flow rate was 0.5 mL/min. The initial % B was 10, which was held for 30 s then ramped up to 90% B over 3 min, held at 90% B for 1 min, ramped down to 10% B over 15 s, and then held at 10% B for 15 s. The UV-Vis spectrum from 210-400 nm was monitored with 3.6 nm resolution. Positive and negative mode ESI were monitored from 100-1000 m/z with a 20 V cone voltage at 5 Hz sampling frequency in centroid collection.
The relative starting material remaining in the WT ClbP reaction was determined by LCMS and then compared to the residual starting material in the no-enzyme and catalytically inert enzyme (S95A ClbP) reactions. In an ideal case, the amount of residual starting material in the WT ClbP reaction was <25% of the amount in the S95A ClbP and no-enzyme conditions. In an acceptable case, the amount of residual starting material in the WT ClbP reaction was 25-75% of the amount in the S95A ClbP and no-enzyme conditions. In a non-preferred case, the amount of residual starting material in the WT ClbP reaction was >75% of the amount in the S95A ClbP and no-enzyme conditions.
Formation of the anticipated product was likewise quantified by LCMS analysis and confirmed by coelution with an external product standard. In an ideal case, the amount of product formed in the WT ClbP reaction corresponded to >75% of the theoretical maximum. In an acceptable case, the amount of product formed in the WT ClbP reaction corresponded to 25-75% of the theoretical maximum. In a non-preferred case, the amount of product formed in the WT ClbP reaction corresponded to <25% of the theoretical maximum.

Non-standard residues stand in square brackets, D forms with d. Residues, ends and D or L forms follow the SMILES beside them. *: point of attachment. Myristoyl = CCCCCCCCCCCCCC(=O)*; Octanoyl = CCCCCCCC(=O)*

For `CCCCCCCCCCCCCC(=O)N[C@H](CC(N)=O)C(=O)N[C@@H](C)CCC(=O)O[C@]1(CC)C(=O)OCc2c1cc1n(c2=O)Cc2c-1nc1ccc(O)cc1c2CC` [Example 35, (S)-4,11-diethyl-9-hydroxy-3,14-dioxo-3,4,12,14-tetrahydro-1H-pyrano[3′,4′:6,7]indolizino[1,2-b]quinolin-4-yl (S)-4-((R)-4-amino-4-oxo-2-tetradecanamidobutanamido)pentanoate], the “Assay 2 (SIF) (% @ Remaining 4 hours)” value in data set [1] is reported as “C (>75% of the tested compound remaining)”.

With `CCCCCCCC(=O)N[C@H](CC(N)=O)C(=O)N[C@@H](CC(C)C)C(=O)OC` [Example 7, Methyl octanoyl-D-asparaginyl-L-leucinate] (Octanoyl-[dN]-Leu-OMe), the “Assay 3 (% Remaining at 24 h)” value in data set [2] is “A (<25% of the tested compound remaining)”. Moreover, in data set [3] (100 μM compound), the “Status (compound remaining in WT ClbP reaction relative to no-enzyme control)” value was “++ (<25% compound remaining in the 20 μM WT ClbP reaction relative to the control)”. In addition, the “Assay 2 (SIF) (% @ Remaining 4 hours)” value in data set [1] was “A (<25% of the tested compound remaining)”.

Regarding `CCCCCCCC(=O)N[C@H](CC(N)=O)C(=O)NCCN(C)C(=O)Oc1ccc2c(C)cc(=O)oc2c1` [Example 70, 4-methyl-2-oxo-2H-chromen-7-yl (R)-(2-(4-amino-2-octanamido-4-oxobutanamido)ethyl)(methyl)carbamate], the “Assay 3 (% Remaining at 24 h)” value in data set [2] is “C (>75% of the tested compound remaining)”. For the same compound, in data set [1], the “Assay 2 (SIF) (% @ Remaining 4 hours)” value is reported as “C (>75% of the tested compound remaining)”.

As to `CCCCCCCC(=O)N[C@H](CCC(=O)O)C(=O)N[C@@H](C)C(=O)OC` [Example 9, (R)-5-(((S)-1-methoxy-1-oxopropan-2-yl)amino)-4-octanamido-5-oxopentanoic acid] (Octanoyl-[dE]-Ala-OMe), the “Assay 3 (% Remaining at 24 h)” value in data set [2] is recorded as “B (25-75% of the tested compound remaining)”. In addition, in data set [3] (100 μM compound), the “Status (compound remaining in WT ClbP reaction relative to no-enzyme control)” value is given as “− (>75% compound remaining in the 20 μM WT ClbP reaction relative to the no-enzyme control)”. In addition, the “Assay 2 (SIF) (% @ Remaining 4 hours)” value in data set [1] is “B (25-75% of the tested compound remaining)”.

For `CCCCCCCC(=O)N[C@H](CC(N)=O)C(=O)N[C@H](C(=O)OC)C(C)C` [Example 6, Methyl octanoyl-D-asparaginyl-L-valinate] (Octanoyl-[dN]-Val-OMe), the “Assay 3 (% Remaining at 24 h)” value in data set [2] is “B (25-75% of the tested compound remaining)”. In addition, the “Status (compound remaining in WT ClbP reaction relative to no-enzyme control)” value in data set [3] (100 μM compound) is on record as “++ (<25% compound remaining in the 20 μM WT ClbP reaction relative to the control)”. The “Assay 2 (SIF) (% @ Remaining 4 hours)” value in data set [1] is reported as “A (<25% of the tested compound remaining)”.

On to `COC(=O)[C@H](C)NC(=O)[C@@H](CC(N)=O)NC(=O)[C@@H](C)c1ccc2cc(OC)ccc2c1` [Example 18, Methyl ((S)-2-(6-methoxynaphthalen-2-yl)propanoyl)-D-asparaginyl-L-alaninate], for which the “Assay 3 (% Remaining at 24 h)” value in data set [2] is “C (>75% of the tested compound remaining)”. Besides, the “Status (compound remaining in WT ClbP reaction relative to no-enzyme control)” value in data set [3] (100 μM compound) was “++ (<25% compound remaining in the 20 μM WT ClbP reaction relative to the control)”. The “Assay 2 (SIF) (% @ Remaining 4 hours)” value in data set [1] is listed as “A (<25% of the tested compound remaining)”.

As for `CCCCCCCCCCCCCC(=O)N[C@H](CC(N)=O)C(=O)Nc1ccc(COC)cc1` [Example 22, (R)—N1-(4-(methoxymethyl)phenyl)-2-tetradecanamidosuccinamide], in data set [2], the “Assay 3 (% Remaining at 24 h)” value was “A (<25% of the tested compound remaining)” and the “Selective delivery to the colon (conclusion from Table 2)” value is reported as “can be selectively delivered to the colon”. Besides, in data set [3] (100 μM compound), the “Status (compound remaining in WT ClbP reaction relative to no-enzyme control)” value is listed as “+ (between 25-75% compound remaining in the 20 μM WT ClbP reaction relative to the no-enzyme control)”. Also, the “Assay 2 (SIF) (% @ Remaining 4 hours)” value in data set [1] is “C (>75% of the tested compound remaining)”.

For `CCCCCCCC(=O)N[C@H](CC(N)=O)C(=O)N[C@H](C)C(=O)OC` [Example 5, Methyl octanoyl-D-asparaginyl-D-alaninate] (Octanoyl-[dN]-[dA]-OMe), in data set [2], the “Assay 3 (% Remaining at 24 h)” value is given as “C (>75% of the tested compound remaining)”. The “Status (compound remaining in WT ClbP reaction relative to no-enzyme control)” value in data set [3] (100 μM compound) was “++ (<25% compound remaining in the 20 μM WT ClbP reaction relative to the control)”. Also, the “Assay 2 (SIF) (% @ Remaining 4 hours)” value in data set [1] is recorded as “C (>75% of the tested compound remaining)”.

For `CCCCCCCCCCCCCC(=O)N[C@H](CC(N)=O)C(=O)NCCCC(=O)OC` [Example 20, Methyl (R)-4-(4-amino-4-oxo-2-tetradecanamidobutanamido)butanoate], in data set [2], the “Assay 3 (% Remaining at 24 h)” value is reported as “A (<25% of the tested compound remaining)” and the “Selective delivery to the colon (conclusion from Table 2)” value is recorded as “can be selectively delivered to the colon”. Besides, the “Status (compound remaining in WT ClbP reaction relative to no-enzyme control)” value in data set [3] (100 μM compound) is reported as “− (>75% compound remaining in the 20 μM WT ClbP reaction relative to the no-enzyme control)”. Besides, in data set [1], the “Assay 2 (SIF) (% @ Remaining 4 hours)” value is on record as “B (25-75% of the tested compound remaining)”.

In the case of `CCCCCCCC(=O)N[C@H](CCCNC(=N)N)C(=O)N[C@@H](C)C(=O)OC` [Example 11, Methyl octanoyl-D-arginyl-L-alaninate] (Octanoyl-[dR]-Ala-OMe), the “Assay 3 (% Remaining at 24 h)” value in data set [2] is reported as “C (>75% of the tested compound remaining)”. Moreover, the “Status (compound remaining in WT ClbP reaction relative to no-enzyme control)” value in data set [3] (500 μM compound) was “− (>75% compound remaining in the 20 μM WT ClbP reaction relative to the no-enzyme control)”. In addition, the “Assay 2 (SIF) (% @ Remaining 4 hours)” value in data set [1] is given as “A (<25% of the tested compound remaining)”.

Regarding `CCCCCCCC(=O)N[C@H](CC(N)=O)C(=O)N[C@@H](C)C(=O)OC` [Example 2, Methyl octanoyl-D-asparaginyl-L-alaninate] (Octanoyl-[dN]-Ala-OMe), the “Assay 3 (% Remaining at 24 h)” value in data set [2] is on record as “C (>75% of the tested compound remaining)”. The “Status (compound remaining in WT ClbP reaction relative to no-enzyme control)” value in data set [3] (100 μM compound) is recorded as “++ (<25% compound remaining in the 20 μM WT ClbP reaction relative to the control)”. The “Assay 2 (SIF) (% @ Remaining 4 hours)” value in data set [1] is given as “A (<25% of the tested compound remaining)”.

As to `CCCCCCCCCCCCCC(=O)N[C@H](CC(N)=O)C(=O)N[C@@H](C)C(=O)OC` [Example 1, Methyl tetradecanoyl-D-asparaginyl-L-alaninate] (Myristoyl-[dN]-Ala-OMe), the “Assay 3 (% Remaining at 24 h)” value in data set [2] is listed as “A (<25% of the tested compound remaining)”. In data set [3] (500 μM compound), the “Status (compound remaining in WT ClbP reaction relative to no-enzyme control)” value is recorded as “− (>75% compound remaining in the 20 μM WT ClbP reaction relative to the no-enzyme control)”. Besides, in data set [1], the “Assay 2 (SIF) (% @ Remaining 4 hours)” value is “A (<25% of the tested compound remaining)”.

(Values after US11998610B2, “Conjugates and methods of using the same” (Flagship Pioneering Innovations V, Inc., priority 2018, dated 2024).)
